According to PubChem BioAssay AID248 (DTP/NCI, 2004):
Values joined by “and” are separate entries in the source; they are usually repeats but may differ in a detail not shown here. Identical values can stand only once. Toxic doses and inconclusive results are not listed.

Test system: L1210 leukemia ip in BDF1 mice, survival T/C
Test: NCI In Vivo Anticancer Drug Screen. Data for tumor model L1210 Leukemia (intraperitoneal) in B6D2F1 (BDF1) mice
Conditions: endpoint: mean survival time, higher = longer survival
In short: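 Value reflects the ratio of survival in compound-treated mice to survival in vehicle-treated controls, with both groups carrying the same transplanted tumor.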

[1] = dose: 100.0 mg/kg/injection, schedule: Q01DX009 (ip), vehicle: Klucel (hydroxypropylcellulose) (HPC)
[2] = dose: 200.0 mg/kg/injection, schedule: Q01DX009 (ip), vehicle: Klucel (hydroxypropylcellulose) (HPC)
[3] = dose: 400.0 mg/kg/injection, schedule: Q01DX009 (ip), vehicle: Klucel (hydroxypropylcellulose) (HPC)
[4] = dose: 150.0 mg/kg/injection, schedule: Q01DX001 (ip), vehicle: saline
[5] = dose: 300.0 mg/kg/injection, schedule: Q01DX001 (ip), vehicle: saline
[6] = dose: 100.0 mg/kg/injection, schedule: Q01DX009 (ip), vehicle: saline with Tween-80
[7] = dose: 200.0 mg/kg/injection, schedule: Q01DX009 (ip), vehicle: saline with Tween-80
[8] = dose: 100.0 mg/kg/injection, schedule: Q04DX003 (ip), vehicle: saline
[9] = dose: 200.0 mg/kg/injection, schedule: Q04DX003 (ip), vehicle: saline
[10] = dose: 400.0 mg/kg/injection, schedule: Q04DX003 (ip), vehicle: saline
[11] = dose: 100.0 mg/kg/injection, schedule: Q01DX001 (ip), vehicle: Klucel (hydroxypropylcellulose) (HPC)
[12] = dose: 50.0 mg/kg/injection, schedule: Q01DX001 (ip), vehicle: saline
[13] = dose: 100.0 mg/kg/injection, schedule: Q01DX001 (ip), vehicle: saline
[14] = dose: 200.0 mg/kg/injection, schedule: Q01DX001 (ip), vehicle: saline
[15] = dose: 400.0 mg/kg/injection, schedule: Q01DX001 (ip), vehicle: saline

## COC(=O)CCCCC(=O)OCC#CC#CCOC(=O)CCCCC(=O)OC
[1]
  T/C: 95 % of control
dose: 100.0 mg/kg/injection, schedule: Q04DX003 (ip), vehicle: Klucel (hydroxypropylcellulose) (HPC)
  T/C: 91 % of control
[2]
  T/C: 104 % of control
dose: 200.0 mg/kg/injection, schedule: Q04DX003 (ip), vehicle: Klucel (hydroxypropylcellulose) (HPC)
  T/C: 92 % of control
[3]
  T/C: 98 % of control
dose: 400.0 mg/kg/injection, schedule: Q04DX003 (ip), vehicle: Klucel (hydroxypropylcellulose) (HPC)
  T/C: 92 % of control

## CN(N=O)C(=O)NCCCNC(=O)N(C)N=O
dose: 6.25 mg/kg/injection, schedule: Q01DX Z (ip), vehicle: carboxymethylcellulose (CMC)
  T/C: 118 % of control
dose: 12.5 mg/kg/injection, schedule: Q01DX Z (ip), vehicle: carboxymethylcellulose (CMC)
  T/C: 101 % of control
dose: 25.0 mg/kg/injection, schedule: Q01DX Z (ip), vehicle: carboxymethylcellulose (CMC)
  T/C: 112 % of control
dose: 100.0 mg/kg/injection, schedule: Q01DX Z (ip), vehicle: carboxymethylcellulose (CMC)
  T/C: 200 % of control
dose: 150.0 mg/kg/injection, schedule: Q01DX001 (ip), vehicle: carboxymethylcellulose (CMC)
  T/C: 120 % of control
[4]
  T/C: 102 % of control
dose: 250.0 mg/kg/injection, schedule: Q01DX Z (ip), vehicle: carboxymethylcellulose (CMC)
  T/C: 121 % of control
dose: 300.0 mg/kg/injection, schedule: Q01DX001 (ip), vehicle: carboxymethylcellulose (CMC)
  T/C: 123 % of control
[5]
  T/C: 112 % of control
dose: 300.0 mg/kg/injection, schedule: Q01DX Z (ip), vehicle: carboxymethylcellulose (CMC)
  T/C: 90 % of control
dose: 600.0 mg/kg/injection, schedule: Q01DX001 (ip), vehicle: saline
  T/C: 109 % of control

## O=S(=O)(OCCNc1ccccc1)c1ccccc1
dose: 75.0 mg/kg/injection, schedule: Q01DX001 (ip), vehicle: saline
  T/C: 101 % of control
[4]
  T/C: 98 % of control
[5]
  T/C: 98 % of control

## CSc1ccc(OC(=O)Nc2ccc(C)c([N+](=O)[O-])c2)cc1C
[6]
  T/C: 89 % of control
[7]
  T/C: 89 % of control

## COC(=O)/C(C)=N\N=C(N)N
dose: 15.0 mg/kg/injection, schedule: Q01DX Z (ip), vehicle: carboxymethylcellulose (CMC)
  T/C: 104 % of control
dose: 30.0 mg/kg/injection, schedule: Q01DX Z (ip), vehicle: carboxymethylcellulose (CMC)
  T/C: 92 % of control
dose: 60.0 mg/kg/injection, schedule: Q01DX Z (ip), vehicle: carboxymethylcellulose (CMC)
  T/C: 103 % of control
dose: 120.0 mg/kg/injection, schedule: Q01DX Z (ip), vehicle: carboxymethylcellulose (CMC)
  T/C: 97 % of control
dose: 240.0 mg/kg/injection, schedule: Q01DX Z (oral), vehicle: carboxymethylcellulose (CMC)
  T/C: 100 % of control
dose: 480.0 mg/kg/injection, schedule: Q01DX Z (oral), vehicle: carboxymethylcellulose (CMC)
  T/C: 96 % of control
dose: 960.0 mg/kg/injection, schedule: Q01DX Z (oral), vehicle: carboxymethylcellulose (CMC)
  T/C: 100 % of control
dose: 1920.0 mg/kg/injection, schedule: Q01DX Z (oral), vehicle: carboxymethylcellulose (CMC)
  T/C: 98 % of control

## CC(C)C1(C(C)C)OCC(CO)O1 (configuration not stated)
dose: 25.0 mg/kg/injection, schedule: Q01DX009 (ip), vehicle: saline
  T/C: 93 % of control
dose: 25.0 mg/kg/injection, schedule: Q04DX003 (ip), vehicle: saline
  T/C: 100 % of control
dose: 50.0 mg/kg/injection, schedule: Q01DX009 (ip), vehicle: saline
  T/C: 102 % of control
dose: 50.0 mg/kg/injection, schedule: Q04DX003 (ip), vehicle: saline
  T/C: 94 % of control
dose: 100.0 mg/kg/injection, schedule: Q01DX009 (ip), vehicle: saline
  T/C: 104 % of control
[8]
  T/C: 94 % of control
dose: 200.0 mg/kg/injection, schedule: Q01DX009 (ip), vehicle: saline
  T/C: 102 % of control
[9]
  T/C: 102 % of control
dose: 400.0 mg/kg/injection, schedule: Q01DX009 (ip), vehicle: saline
  T/C: 104 % of control
[10]
  T/C: 100 % of control

## O=C1c2ccccc2C(=O)c2[nH]c(-c3ccccc3)cc21
dose: 100.0 mg/kg/injection, schedule: Q01DX001 (ip), vehicle: saline with Tween-80
  T/C: 94 % of control
dose: 200.0 mg/kg/injection, schedule: Q01DX001 (ip), vehicle: saline with Tween-80
  T/C: 94 % of control
dose: 400.0 mg/kg/injection, schedule: Q01DX001 (ip), vehicle: saline with Tween-80
  T/C: 94 % of control

## Nc1nc(-c2cccc(NC(=O)c3ccc(S(=O)(=O)F)cc3)c2)nc2[nH]ncc12
dose: 25.0 mg/kg/injection, schedule: Q01DX001 (ip), vehicle: Klucel (hydroxypropylcellulose) (HPC)
  T/C: 86 % of control
dose: 50.0 mg/kg/injection, schedule: Q01DX001 (ip), vehicle: Klucel (hydroxypropylcellulose) (HPC)
  T/C: 94 % of control
[11]
  T/C: 86 % of control

## CCC[CH2][Sn]1([CH2]CCC)[O]OC(c2ccc(OC)cc2)[O]1 (configuration not stated)
dose: 6.25 mg/kg/injection, schedule: Q01DX005 (sc), vehicle: olive oil, sesame oil, peanut oil
  T/C: 95 % of control
dose: 6.25 mg/kg/injection, schedule: Q01DX009 (sc), vehicle: olive oil, sesame oil, peanut oil
  T/C: 104 % of control and 88 % of control
dose: 12.5 mg/kg/injection, schedule: Q01DX005 (sc), vehicle: olive oil, sesame oil, peanut oil
  T/C: 106 % of control
dose: 12.5 mg/kg/injection, schedule: Q01DX009 (sc), vehicle: olive oil, sesame oil, peanut oil
  T/C: 104 % of control and 91 % of control
dose: 25.0 mg/kg/injection, schedule: Q01DX005 (sc), vehicle: olive oil, sesame oil, peanut oil
  T/C: 95 % of control
dose: 25.0 mg/kg/injection, schedule: Q04DX002 (sc), vehicle: olive oil, sesame oil, peanut oil
  T/C: 97 % of control
dose: 50.0 mg/kg/injection, schedule: Q04DX002 (sc), vehicle: olive oil, sesame oil, peanut oil
  T/C: 106 % of control
dose: 100.0 mg/kg/injection, schedule: Q04DX002 (sc), vehicle: olive oil, sesame oil, peanut oil
  T/C: 100 % of control

## S=C([S-])N1CCN(c2ccccc2)CC1.S=C([S-])N1CCN(c2ccccc2)CC1.[Zn]
[8]
  T/C: 89 % of control
[9]
  T/C: 95 % of control and 88 % of control
[10]
  T/C: 90 % of control

## OC1(c2cccc(C(F)(F)F)c2)CCN(C2CC2)CC1
dose: 12.5 mg/kg/injection, schedule: Q04DX003 (ip), vehicle: Klucel (hydroxypropylcellulose) (HPC)
  T/C: 104 % of control
dose: 25.0 mg/kg/injection, schedule: Q04DX003 (ip), vehicle: Klucel (hydroxypropylcellulose) (HPC)
  T/C: 105 % of control
dose: 50.0 mg/kg/injection, schedule: Q04DX003 (ip), vehicle: Klucel (hydroxypropylcellulose) (HPC)
  T/C: 100 % of control

## O=C(O)Cc1ccc2ccccc2c1
[12]
  T/C: 101 % of control
[13]
  T/C: 103 % of control
[14]
  T/C: 107 % of control
[15]
  T/C: 103 % of control

## CCOC(=O)C1CN(C(C)(C)C)C(=O)C1=O (configuration not stated)
[12]
  T/C: 106 % of control
[13]
  T/C: 102 % of control
[14]
  T/C: 108 % of control
[15]
  T/C: 100 % of control

## O=C(Cl)C1CCCCC1
dose: 6.25 mg/kg/injection, schedule: Q01DX015 (ip), vehicle: saline
  T/C: 93 % of control
dose: 12.5 mg/kg/injection, schedule: Q01DX015 (ip), vehicle: saline
  T/C: 89 % of control
dose: 25.0 mg/kg/injection, schedule: Q01DX015 (ip), vehicle: saline
  T/C: 93 % of control and 96 % of control
dose: 50.0 mg/kg/injection, schedule: Q01DX015 (ip), vehicle: saline
  T/C: 90 % of control

## CNS(=O)(=O)c1ccc(C)cc1
[1]
  T/C: 104 % of control
[8]
  T/C: 102 % of control
[2]
  T/C: 108 % of control
[9]
  T/C: 100 % of control
[3]
  T/C: 108 % of control
[10]
  T/C: 122 % of control

## c1ccc2c(-c3nc4ccccc4[nH]3)cccc2c1
[6]
  T/C: 91 % of control
dose: 100.0 mg/kg/injection, schedule: Q04DX003 (ip), vehicle: saline with Tween-80
  T/C: 93 % of control
[7]
  T/C: 96 % of control
dose: 200.0 mg/kg/injection, schedule: Q04DX003 (ip), vehicle: saline with Tween-80
  T/C: 93 % of control
dose: 400.0 mg/kg/injection, schedule: Q01DX009 (ip), vehicle: saline with Tween-80
  T/C: 93 % of control
dose: 400.0 mg/kg/injection, schedule: Q04DX003 (ip), vehicle: saline with Tween-80
  T/C: 102 % of control

## Cc1cc(NC(=O)NCCCl)c2c(c1C)CCCC2
dose: 20.0 mg/kg/injection, schedule: Q01DX001 (ip), vehicle: Klucel (hydroxypropylcellulose) (HPC)
  T/C: 100 % of control
dose: 40.0 mg/kg/injection, schedule: Q01DX001 (ip), vehicle: Klucel (hydroxypropylcellulose) (HPC)
  T/C: 96 % of control
[11]
  T/C: 90 % of control
